Experimental data published in patent US10988523B2, “Modified lipidated Relaxin B chain peptides and their therapeutic use” (Sanofi, priority 2018, dated 2021).
pEC50: −log10 of the molar value. ≈ marks a conversion by molar mass, not a printed value. Like-named read-outs stand apart in the source and are kept apart here. *1 amine or outer side, *2 acyl side, *3 side chain or, on linkers, in order; H or OH if unused. Where a SMILES comes first, the peptide text is derived from it. Side-chain parts run from the residue outwards. [ ]: non-standard residue; d: D form. The star is where a group is joined. PEG12 = NCCOCCOCCOCCOCCOCCOCCOCCOCCOCCOCCOCCOCCC(=O)O; γGlu = O=C(O)[C@H](CCC(=O)[*:2])N[*:1]; Stearoyl = CCCCCCCCCCCCCCCCCC(=O)*; Nle = CCCC[C@H](N)C(=O)O; Aib = CC(C)(N)C(=O)O

How the values were obtained:
[1] = molecular target: T1, RXFP1 (Homo sapiens, UniProt Q9HBX9); assay: OVCAR5 cAMP assay (HTRF), RXFP1 agonist activity; type: cell-based; details: for Emax: OVCAR-5
T1 construct: OVCAR5 cells expressing endogenous RXFP1; endogenous in cells; host or cells: OVCAR5 cells
T1 sequence (Q9HBX9 1-757): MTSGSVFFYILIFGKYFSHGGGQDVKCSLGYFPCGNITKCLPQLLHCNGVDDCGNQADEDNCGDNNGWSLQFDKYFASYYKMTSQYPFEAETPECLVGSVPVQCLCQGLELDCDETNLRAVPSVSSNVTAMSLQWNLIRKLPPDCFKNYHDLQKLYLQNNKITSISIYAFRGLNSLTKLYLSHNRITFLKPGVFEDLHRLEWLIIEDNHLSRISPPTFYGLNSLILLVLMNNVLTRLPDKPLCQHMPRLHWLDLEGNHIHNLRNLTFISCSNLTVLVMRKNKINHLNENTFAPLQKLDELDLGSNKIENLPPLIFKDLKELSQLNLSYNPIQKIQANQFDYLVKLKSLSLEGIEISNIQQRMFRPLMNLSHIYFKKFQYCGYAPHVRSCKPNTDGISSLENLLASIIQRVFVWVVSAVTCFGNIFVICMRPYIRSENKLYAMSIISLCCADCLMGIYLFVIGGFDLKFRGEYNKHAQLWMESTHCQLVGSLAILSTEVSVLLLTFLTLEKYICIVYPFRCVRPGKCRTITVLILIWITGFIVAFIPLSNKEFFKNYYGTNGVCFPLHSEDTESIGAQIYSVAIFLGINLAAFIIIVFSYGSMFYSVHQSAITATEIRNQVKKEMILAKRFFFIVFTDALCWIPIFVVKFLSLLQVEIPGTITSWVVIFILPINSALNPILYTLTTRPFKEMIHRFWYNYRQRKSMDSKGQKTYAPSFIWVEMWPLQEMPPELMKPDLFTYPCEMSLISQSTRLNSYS
In short: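 OVCAR5 cells (endogenous RXFP1) pretreated 40 min at 37° C with 1 mM IBMX, then exposed to peptides in serum-free medium for 30 min at 37° C. Lysate cAMP read by HTRF; EC50 from variable-slope sigmoidal fit; Emax as % of H2-relaxin maximal cAMP in same run.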

[2] = Solubility testing of peptides in buffer; type: physicochemical
Protocol: Prior to the testing of solubility of a peptide batch, its purity (HPLC-UV) was determined.
Acetate Buffer 50 mM pH4.5: 0.75 g […], 3H2O (Sigma 57545)+0.35 ml CH3CO2H 100% solution dissolved in Millipore water, adjusted to pH with diluted (1:1) CH3CO2H and diluted to 250 ml with Millipore water.
In a 4 ml Ependorph vial, an accurately weighed sample of compound was diluted in study media to obtain target concentration of 2, 6 or 10 mg/ml of pure compound. The sample vials were shacked (rock 'roll shaker) for ˜19 h. 3004, Aliquots ( ) were filtered through a Millipore “Solvinert” plate (0.45 μm—PTFE hydrophilic).
pH was measured with a micro electrode
Waters Acquity UPLC System with DAD detector
Column: Waters Peptide Column CSH C18 (130 Å; 1.7 μm; 50*2.1 mm)
Column temperature: 60° C.
Full loop (about 5 μL)—overfill factor 5
Weak et Strong wash: H2O/ACN (75/25; V/V); Seal wash: H2O/IsOH (95/5; V/V). Mobile phase:
Solvent A: 0.05% TFA in H2O; Solvent B: 0.035% TFA in CH3CN
Gradient: from 0 to 12 min B=2% to 60%, from 12 to 14 min B=60% to 100%. Column washing 100% B 1 min, column equilibration 2% B 2.5 min.
UV detector: wavelength: 220 nm.

[3] = Pharmacokinetic (PK) determination after i.v. or s.c. administration to rats; type: in vivo, Sprague Dawley rats; details: Sprague Dawley, Rat PK
In short: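 Sprague Dawley rats received peptide in PBS at 1 mg/kg i.v. or 3 mg/kg s.c., dose corrected for salts, solvent and purity. Plasma analysed by LC/MS after protein precipitation; non-compartmental PK, BLQ values set to zero, F% as dose-corrected s.c./i.v. AUC ratio.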

[4] = Stability testing of peptides in human plasma or blood; type: in vitro ADME; details: 37° C.; for Human Plasma stability % remaining T = 0: human plasma or blood, T = 0 (reference), 5 μM; for remaining at 1 h, 5 µM / remaining at 4 h, 5 µM: human plasma; for remaining at 1 h, 5 µM: read-out: Human Plasma stability % remaining 1 h; for remaining at 4 h, 5 µM: read-out: Human Plasma stability % remaining 4 h
In short: (§1)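 Peptide at 5 µM final was incubated at 37 °C in heparinized rat or human plasma or blood, sampled up to 4 h, and extracted with acetonitrile/1% TFA. HPLC peak areas relative to t0 give % remaining peptide.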

[5] = Stability testing of peptides in rat plasma or blood; type: in vitro ADME; details: 37° C.; for Rat plasma stability % remaining T = 0: rat plasma or blood, T = 0 (reference), 5 μM; for remaining at 1 h, 5 µM / remaining at 4 h, 5 µM: rat plasma; for remaining at 1 h, 5 µM: read-out: Rat plasma stability % remaining 1 h; for remaining at 4 h, 5 µM: read-out: Rat plasma stability % remaining 4 h
In short: as §1

[6] = maximal cAMP relative to H2-relaxin maximal cAMP x 100, read-out: Emax cAMP assay in OVCAR 5 cells
[7] = acetate buffer 50 mM pH 4.5, target solubility 2.0 mg/ml, read-out: Solubility Acetate buffer pH 4.5
[8] = phosphate buffer 50 mM pH 7.4, target solubility 2.0 mg/ml, read-out: Solubility phosphate buffer pH 7.4

| Emax ([1]; maximal cAMP relative to H2-relaxin maximum (100%), read-out: EMax, OVCAR 5 cells (cAMP)) | solubility ([2]; acetate buffer, pH 4.5, read-out: Solubility Acetate buffer pH 4.5) | solubility ([2]; phosphate buffer, pH 7.4, read-out: Solubility phosphate buffer pH 7.4) | C0 ([3]; iv, 1 mg/kg i.v., extrapolated plasma concentration at t=0, read-out: C0) | half-life ([3]; plasma, iv, 1 mg/kg i.v., read-out: T½ (converted)) | Cmax ([3]; plasma, sc, 3 mg/kg s.c.) | Tmax ([3]; plasma, sc, 3 mg/kg s.c.) | bioavailability ([3]; plasma, subcutaneous, 3 mg/kg s.c. vs 1 mg/kg i.v., dose-corrected AUC ratio) | Human Plasma stability % remaining T = 0 [4] | remaining at 1 h, 5 µM [4] | remaining at 4 h, 5 µM [4] | pEC50 ([1]; OVCAR5 cells expressing endogenous RXFP1, cAMP readout, 30 min, 1 mM IBMX, read-out: EC50 cAMP assay in OVCAR 5 cells) | Emax [1, 6] | solubility [2, 7] | solubility [2, 8] | Rat plasma stability % remaining T = 0 [5] | remaining at 1 h, 5 µM [5] | remaining at 4 h, 5 µM [5] | Compound |
| --- | --- | --- | --- | --- | --- | --- | --- | --- | --- | --- | --- | --- | --- | --- | --- | --- | --- | --- |
| 89% | 7000 µg/mL (≈ 1740 µM) | 7000 µg/mL (≈ 1740 µM) | 2200 nM | 4.8 h | 600 nM | 4 h | 105% | – | – | – | – | – | – | – | – | – | – | CCCCCCCCCCCCCCCCCC(=O)N[C@@H](CCC(=O)N[C@@H](CCC(=O)N[C@@H](CCC(=O)NCCCC[C@H](NC(=O)CCOCCOCCOCCOCCOCCOCCOCCOCCOCCOCCOCCOCCNC(=O)[C@H](CCCCN)NC(=O)[C@H](CCCNC(=N)N)NC(=O)C(C)(C)NC(=O)[C@H](CO)NC(=O)[C@H](Cc1c[nH]c2ccccc12)NC(=O)[C@@H](NC(=O)[C@H](CO)NC(=O)[C@H](CCCC)NC(=O)CNC(=O)[C@H](CCC(=O)O)NC(=O)C(C)(C)NC(=O)C(C)(C)NC(=O)[C@@H](NC(=O)[C@H](CCC(N)=O)NC(=O)[C@H](C)NC(=O)[C@H](CCCNC(=N)N)NC(=O)[C@@H](NC(=O)[C@H](CCCCN)NC(=O)[C@H](CCC(=O)O)NC(=O)[C@H](CCCNC(=N)N)NC(=O)CNC(=O)[C@H](CCC(=O)O)NC(=O)[C@H](CC(C)C)NC(C)=O)C(C)C)[C@@H](C)CC)[C@@H](C)O)C(N)=O)C(=O)O)C(=O)O)C(=O)O [compound 30] (Ac-LEGREKVRAQI[Aib][Aib]EG[Nle]STWS[Aib]RK[PEG12]K([γGlu-γGlu-γGlu-Stearoyl])-NH2) |
| – | – | – | – | – | – | – | – | 100% | 41% | 31% | 6.69 | 84% | 2300 µg/mL | 177 µg/mL | 100% | 23% | 14% | Ac-VIKLSGRELVRAQIAISGMSTWSKKKK-NH2 [KKKK(AcB7-29 C11.23S), reference compound] |
| – | – | – | – | – | – | – | – | 100% | 67% | 18% | – | 70% | 1540 µg/mL | < 1 µg/mL | 100% | 16% | 2% | Ac-VIKLSGRELVRAQIAISGMSTWSKRSL-NH2 [AcB7-33 C11.23S, reference compound] |
